What was measured:
[1] = test system: IEC junction; assay: Transmission electron microscopy of intestines, ruthenium red; type: in vivo, mouse; conditions: day 7 and day 21; allo-BMT recipients, intragastric butyrate
Excerpt: Samples were stained as previously described (Soler, A. P. et al. Increased tight junctional permeability is associated with the development of colon cancer. Carcinogenesis 20, 1425-1431 (1999)). Briefly, the intestines from mice that received butyrate or vehicle treatment were harvested 7 days and 21 days following syngeneic and allogeneic BMT and flushed with 0.1 M Sorensen's phosphate buffer (pH 7.4) to remove luminal contents using a 20G needle. The intestines were next gently flushed with 0.1% ruthenium red (RR) containing 2.5% glutaraldehyde fixative in Sorensen's buffer and immediately placed in a dish containing the stain/fixative. Cross sections were immediately sliced (2 mm wide) from the duodenum, jejunum, and illium. The tissue was then rinsed three times with Sorensen's buffer, containing 0.1 percent RR and post-fixed for one hour in one percent osmium tetroxide in the same buffer containing RR. […] Images were recorded digitally using a Hamamatsu ORCA-HR digital camera system operated using AMT software (Advanced Microscopy Techniques Corp., Danvers, Mass.).
Intestinal permeability after allo-BMT was assessed by intragastric administration of FITC-dextran, a non-metabolized carbohydrate (Hanash, A. M. et al. Interleukin-22 protects intestinal stem cells from immune-mediated tissue damage and regulates sensitivity to graft versus host disease. Immunity 37, 339-350 (2012)).

[2] = test system: IECs; assay: qPCR of butyrate treated IECs in vitro; type: cell-based, mouse
Method: mRNA was isolated from samples using RNeasy kit following manufacturers instructions (Qiagen; Venlo, Netherlands). Using 1 μg of each mRNA template, cDNA was synthesized using SuperScript VILO (Invitrogen; Carlsbad, Calif.). qPCR primers were designed for murine targets. All primers were verified for the production of a single specific PCR product using a melting curve program and are shown below in Table 2.
It was hypothesized that butyrate would increase anti-apoptotic genes by modulation of histone acetylation. […] It was also determined if the restored acetylation of histone H4 observed in butyrate-treated allo-BMT recipients was responsible for increased BCL-B (Bcl2110) and JAM (F11r) expression via ChIP.

[3] = test system: primary CD326+ IECs; assay: Chromatin immunoprecipitation (acetylated histone-H4) of primary CD326+ IECs; type: cell-based, mouse
Method: Primary CD326+ IECs were seeded on gelatin (Cell Biologics; Chicago, Ill.) coated cell culture dishes (100 mm) overnight followed by treatment with butyrate 1 mM for 24 hours. Cells were harvested and used for ChIP analysis using EZ-Magna ChIP kit from EMD Millipore (Billerica, Mass.) following the manufacturers instructions. Briefly, cells were cross-linked with 1% formaldehyde and extracted chromatin was sonicated using a Bioruptor Pico by Diagenode (Denville, N.J.) to yield DNA fragments predominately in the range of 200-1000 bp. Sonicated lysates were immunoprecipitated (IP) utilizing ChIP grade specific antibodies purchased from EMD Millipore for acetylated histone-H4 and RNA Pol II or IgG control antibody. De-crosslinked DNA was next examined by qPCR using primers targeting the promoter region of the target gene BCL-B (Bcl2110) (Forward: […] (SEQ ID NO:50); Reverse: […] (SEQ ID NO:51)), Slc5a8 (Forward: […] (SEQ ID NO:52); Reverse: […] (SEQ ID NO:53), and JAM (F11r) (Forward: […] (SEQ ID NO:54; Reverse: […] (SEQ ID NO:55)). IP efficiency of all samples was verified by qPCR analysis of the promoter region of Gapdh (Forward: […] (SEQ ID NO:56); Reverse: […] (SEQ ID NO:57)). Data analysis was determined as percent of input utilizing the equations: ΔCt[normalized ChIP]=(Ct[ChIP]−(Ct[Input]−[…])) and % Input=2(−ΔCt [normalized ChIP]).

[4] = test system: HAT; assay: HAT enzymatic activity in donor T cells from recipient spleen; type: in vivo, mouse; conditions: butyrate vs vehicle treated allogeneic animals
Method: (§1) To further determine whether the salutary effects of local treatment with butyrate on GI GVHD were dependent on donor Treg cells, a BMT was performed utilizing the same HC mismatched BMT model in which C57BL/6J (H-2b) cells are transferred to Balb/c (H-2d) mice. T cell-depleted (TCD) bone marrow was transplanted and purified CD4+CD25− T cells from donors. Vehicle or butyrate was administered to the recipients daily for 1 week, then every other day thereafter as above. […]. J. Exp. Med. 204, 57-63 (2007); Lahl, K. & Sparwasser, T. In vivo depletion of FoxP3+ Tregs using the DEREG mouse model. […]. The Treg depleted T cells were then used as donor cells in the major MHC mismatch model used above. […] To further examine whether the local administration of butyrate impacted donor T cells directly, the HDAC and HAT enzymatic activity was determined in donor T cells harvested from the recipient animals. Both the HDAC activity or HAT activity in the donor T cells harvested from the recipient spleen were similar between butyrate and vehicle treated allogeneic animals.

[5] = test system: HDAC; assay: HDAC enzymatic activity in donor T cells from recipient spleen; type: in vivo, mouse; conditions: butyrate vs vehicle treated allogeneic animals
Method: as §1

[6] = IECs following butyrate treatment

## CCCC(=O)[O-].[Na+] [butyrate, sodium butyrate]
[1]
  integrity of the IEC junction (TEM): preserved
[2]; [6]
  mRNA expression of JAM (F11r): significantly increased
  mRNA expression of occludin (Ocln): significantly increased
[2]; butyrate treated IECs
  Bakl mRNA expression: significantly decreased
  Bax mRNA expression: significantly decreased
  transcripts of BCL-B (Bcl2110): significantly increased
[3]; IECs (CD326+) treated with butyrate 1 mM 24 hours
  association of acetylated histone H4 in the promoter region of Slc5a8: increased association
[3]; butyrate treated IECs (CD326+)
  acetylation of histone H4 at the promoter region of Bcl2110: associated with the promoter region
  acetylation of histone H4 at the promoter region of F11r: associated with the promoter region
[4]
  HAT activity in donor T cells: similar
[5]
  HDAC activity in donor T cells: similar

Source: US11260083B2, “Compositions and methods for treating and preventing graft versus host disease” (The Regents of the University of Michigan, priority 2016, dated 2022)
